Reference: patent EP0971917B1, “THIAZOLIDINEDIONE AND OXAZOLIDINEDIONE DERIVATIVES HAVING ANTIDIABETIC, HYPOLIPIDAEMIC AND ANTIHYPERTENSIVE PROPERTIES” (DR. REDDY'S RESEARCH FOUNDATION, priority 1997, dated 1998)

Tested on: C57BL/KsJ-db/db mice
Experiment: Blood sugar and triglycerides lowering activity in db/db mice (in vivo)
Conditions: male C57BL/KsJ-db/db mice, 10 mg/kg/day, oral gavage daily for 6 days; for Maximum reduction in blood glucose level (%): plasma glucose, glucose oxidase method; for Triglyceride lowering (%): plasma triglycerides
Source text: Mutation in colonies of laboratory animals and different sensitivities to dietary regimens have made the development of animal models with non-insulin dependent diabetes associated with obesity and insulin resistance possible. Genetic models such as db/db and ob/ob (See Diabetes, (1982) 31(1) : 1- 6) in mice and fa/fa and zucker rats have been developed by the various laboratories for understanding the pathophysiology of disease and testing the efficacy of new antidiabetic compounds (Diabetes, (1983) 32: 830-838; Annu. Rep. Sankyo Res. Lab. (1994) 46 : 1-57). The homozygous animals, C57 BL/KsJ-db/db mice developed by Jackson Laboratory, US, are obese, hyperglycemic, hyperinsulinemic and insulin resistant (J. Clin. Invest., (1990) 85 : 962-967), whereas heterozygous are lean and normoglycemic. In db/db model, mouse progressively develops insulinopenia with age, a feature commonly observed in late stages of human type II diabetes when blood sugar levels are insufficiently controlled. The state of pancreas and its course vary according to the models. Since this model resembles that of type II diabetes mellitus, the compounds of the present invention were tested for blood sugar and triglycerides lowering activities.
Male C57BL/KsJ-db/db mice of 8 to 14 weeks age, having body weight range of 35 to 60 grams, procured from the Jackson Laboraotory, USA, were used in the experiment The mice were provided with standard feed (National Institute of Nutrition, Hyderabad, India) and acidified water, ad libitum. The animals having more than 300 mg / dl blood sugar were used for testing. The number of animals in each group was 4.
The random blood sugar and triglyceride levels were measured by collecting blood (100 µl) through orbital sinus, using heparinised capillary in tubes containing EDTA which was centrifuged to obtain plasma. The plasma glucose and triglycerides levels were measured spectrometrically, by glucose oxidase and glycerol-3-PO4 oxidase/peroxidase enzyme (Dr. Reddy's Lab. Diagnostic Division Kits, Hyderabad, India) methods respectively. On 6th day the blood samples were collected one hour after administration of test compounds / vehicle for assessing the biological activity.
Test compounds were suspended on 0.25 % carboxymethyl cellulose and administered to test group at a dose of 10 mg to 100 mg / kg through oral gavage daily for 6 days. The control group received vehicle (dose 10 ml / kg).

Cc1nn(CCOc2ccc(CC3SC(=O)NC3=O)cc2)c(=O)c2ccccc12 (stereo not shown) [Example 6, 5-[4-[2-[4-Methyl-1-oxo-1,2-dihydro-phthalazin-2-yl]ethoxy]phenylmethyl] thiazolidin-2,4-dione]
Maximum reduction in blood glucose level (%): 61%
Triglyceride lowering (%): 40%

O=C1NC(=O)C(=Cc2ccc(OCCN3OCc4ccccc4C3=O)cc2)S1 [Example 11, 5-[4-[2-[4-Oxo-3,4-dihydro-1H-2,3-benzoxazin-3-yl]ethoxy]phenylmethylene]thiazolidin-2,4-dione]
Maximum reduction in blood glucose level (%): 37%
Triglyceride lowering (%): 60%
